Series [1] is described as follows: Metabolic stability in human liver microsomes. The class given is ADME, Microsome. The conditions noted are these: read-out: Stability. Background: Microsomes from liver hold many membrane-bound enzymes, among them those of drug oxidation.
Series [2] is described as follows: Metabolic stability in rat liver microsomes. The class given is ADME, Microsome. The conditions noted are these: read-out: Stability.
For another series, the system named is Oryctolagus cuniculus. The experiment in a line: Inhibition of des-Arg-Kallidin-induced hypotensive response in sc dosed rabbit. The class given is functional, organism-based. On the set-up: scale not given: the % may be the effect or the level left.
For series [3], the target named is T1, B1 bradykinin receptor (Homo sapiens, UniProt P46663).
T1 sequence (P46663 whole entry): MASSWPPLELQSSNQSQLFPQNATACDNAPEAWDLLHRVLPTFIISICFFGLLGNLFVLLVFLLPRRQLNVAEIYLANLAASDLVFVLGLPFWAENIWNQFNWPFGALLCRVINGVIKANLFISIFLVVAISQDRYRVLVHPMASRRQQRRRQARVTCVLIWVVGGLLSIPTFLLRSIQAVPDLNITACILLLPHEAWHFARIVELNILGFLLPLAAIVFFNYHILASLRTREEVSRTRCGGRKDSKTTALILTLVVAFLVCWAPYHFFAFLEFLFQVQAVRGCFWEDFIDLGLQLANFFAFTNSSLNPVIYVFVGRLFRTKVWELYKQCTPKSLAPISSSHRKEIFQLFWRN
The experiment in a line: Displacement of [3H]DAK from human bradykinin B1 receptor expressed in clone CHO-D-/aequorin cells. The class given is cell-based. (Loss of bound radioactivity is the signal in a displacement assay; it reports binding, not function.)

Series [4] addresses T1, B1 bradykinin receptor. The experiment in a line: Antagonist activity at human bradykinin B1 receptor expressed in clone CHO-D-/aequorin cells by aquerin based assay. The class given is functional, cell-based.
Series [5] concerns the target T2, B1 bradykinin receptor (Oryctolagus cuniculus, UniProt P48748).
T2 sequence (P48748 whole entry): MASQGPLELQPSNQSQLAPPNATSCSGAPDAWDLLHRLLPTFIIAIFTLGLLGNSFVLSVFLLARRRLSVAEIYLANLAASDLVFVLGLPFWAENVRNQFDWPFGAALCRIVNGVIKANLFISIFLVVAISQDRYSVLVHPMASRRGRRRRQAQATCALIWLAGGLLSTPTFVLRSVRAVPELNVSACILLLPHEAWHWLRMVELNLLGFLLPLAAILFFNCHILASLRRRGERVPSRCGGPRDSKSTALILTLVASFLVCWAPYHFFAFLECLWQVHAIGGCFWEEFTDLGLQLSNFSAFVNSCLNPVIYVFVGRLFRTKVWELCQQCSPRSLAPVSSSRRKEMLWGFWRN
Nature of the series: Antagonist activity at rabbit bradykinin B1 receptor expressed in clone CHO-D-/aequorin cells by aquerin based assay. The class given is functional, cell-based.

In the case of `O=C(C[C@@H](NS(=O)(=O)c1ccc2ccccc2c1)c1ccccc1)N[C@@H]1CCCc2cc(CN3CCCCC3)ccc21`, the values for the microsomal CLint in series [1] and in series [2] were 919 µL/min/mg and 572 µL/min/mg, respectively.
On to `O=C(C[C@@H](NS(=O)(=O)c1cccc(C(F)(F)F)c1)c1ccc(F)cc1)N[C@@H]1CCOc2cc(CN3CCCCC3)ccc21`, for which the Activity in the series on Oryctolagus cuniculus turned out to be 47%.
Turning to `O=C(CC(CS(=O)(=O)c1ccc2ccccc2c1)c1ccccc1)N[C@@H]1CCCc2cc(CN3CCCCC3)ccc21` (stereo not given in full), affinity on B1 bradykinin receptor [3] was put at a Ki of 1.5 nM. Also, at B1 bradykinin receptor [4], the half-maximal inhibitory concentration (IC50) – broadly, the concentration at which inhibition is half-maximal – was determined as 13.7 nM. Further, the microsomal CLint in series [1] is 744 µL/min/mg; in series [2], 167 µL/min/mg.
Consider `Cc1ccc(S(=O)(=O)C[C@@H](O)[C@@H](O)C(=O)N[C@@H]2CCCc3cc(CN4CCCCC4)ccc32)cc1`, for which the microsomal CLint in series [1] and in series [2] was 50 µL/min/mg each time.
For the compound `CO[C@H](CCS(=O)(=O)c1ccc2ccccc2c1)C(=O)N[C@@H]1CCCc2cc(CN3CCCCC3)ccc21`, the results for the microsomal CLint in series [1] and in series [2] were 216 µL/min/mg and 237 µL/min/mg, respectively.
For `O=C(N[C@@H]1CCCc2cc(CN3CCCCC3)ccc21)[C@H](O)[C@H](O)CS(=O)(=O)c1ccccc1`, the figures for the microsomal CLint in series [1] and in series [2] were 319 µL/min/mg and 50 µL/min/mg, respectively.
Turning to `O=C(N[C@@H]1CCCc2cc(CN3CCCCC3)ccc21)[C@H](O)[C@H](O)CS(=O)(=O)c1ccc(C(F)(F)F)cc1`, the Ki (usually the equilibrium dissociation constant of an inhibitor or competing ligand from its target) at B1 bradykinin receptor [3] is 48.4 nM. In addition, the half-inhibitory concentration (IC50) stood at 44.9 nM at B1 bradykinin receptor [4] and 210 nM at B1 bradykinin receptor [5]. Also, the microsomal CLint in series [1] and in series [2] was 50 µL/min/mg each time.
Compound `CC(C)(C)c1ccc(S(=O)(=O)C[C@@H](O)[C@@H](O)C(=O)N[C@@H]2CCCc3cc(CN4CCCCC4)ccc32)cc1` returned an inhibition constant (Ki) at B1 bradykinin receptor [3] of 15.8 nM. In addition, the figures for the 50% inhibitory concentration (IC50) at B1 bradykinin receptor [4] and against B1 bradykinin receptor [5] were 4.5 nM and 25.3 nM, respectively. Besides, the results for the microsomal CLint in series [1] and in series [2] were 296 µL/min/mg and 50 µL/min/mg, respectively.
`O=C(N[C@@H]1CCCc2cc(CN3CCCCC3)ccc21)[C@@H](O)CCS(=O)(=O)c1ccc2ccccc2c1` returned an inhibition constant Ki on B1 bradykinin receptor [3] of 19.1 nM. The compound also displayed an IC50 at B1 bradykinin receptor [4] of 30.8 nM. For the same compound, the results for the microsomal CLint in series [1] and in series [2] were 100 µL/min/mg and 143 µL/min/mg, respectively.
The matching figures for `O=C(N[C@@H]1CCCc2cc(CN3CCCCC3)ccc21)[C@H](O)CCS(=O)(=O)c1ccc2ccccc2c1`: 23.5 nM, 50.6 nM, 100 µL/min/mg and 50 µL/min/mg.
In the case of `CO[C@@H](CC(=O)N[C@@H]1CCCc2cc(CN3CCCCC3)ccc21)CS(=O)(=O)c1ccc2ccccc2c1`, the microsomal CLint in series [1] came out at 274 µL/min/mg; in series [2], 316 µL/min/mg.
As to `O=C(N[C@@H]1CCCc2cc(CN3CCCCC3)ccc21)[C@H](O)[C@H](O)CS(=O)(=O)c1cccc(Cl)c1Cl`, the microsomal CLint in series [1] was found to be 214 µL/min/mg; in series [2], 50 µL/min/mg.
As for `O=C(CCCS(=O)(=O)c1ccc2ccccc2c1)N[C@@H]1CCCc2cc(CN3CCCCC3)ccc21`, the microsomal CLint in series [1] stood at 50 µL/min/mg; in series [2] it was 100 µL/min/mg.
For `O=C(C[C@@H](O)CS(=O)(=O)c1ccc2ccccc2c1)N[C@@H]1CCCc2cc(CN3CCCCC3)ccc21`, the Ki on B1 bradykinin receptor [3] is 100 nM. Further, on B1 bradykinin receptor [4], inhibition was half-maximal at 107 nM (IC50).
Regarding `O=C(N[C@@H]1CCCc2cc(CN3CCCCC3)ccc21)[C@H](O)[C@H](O)CS(=O)(=O)c1ccc(Cl)c(Cl)c1`, on B1 bradykinin receptor [3], the affinity, expressed as Ki, was 16.9 nM. In addition, the IC50 against B1 bradykinin receptor [4] was 17.1 nM; on B1 bradykinin receptor [5] it was 20.3 nM. For the same compound, the microsomal CLint in series [1] worked out at 100 µL/min/mg; in series [2], 193 µL/min/mg.
`O=C(N[C@@H]1CCCc2cc(CN3CCCCC3)ccc21)[C@H](O)[C@H](O)CS(=O)(=O)c1cccc(Cl)c1`: the microsomal CLint in series [1] amounted to 180 µL/min/mg; in series [2], 139 µL/min/mg.
Take `O=C(C[C@H](O)CS(=O)(=O)c1ccc2ccccc2c1)N[C@@H]1CCCc2cc(CN3CCCCC3)ccc21`: at B1 bradykinin receptor [3], the inhibition constant Ki was 41.4 nM. Moreover, half-maximal inhibition at B1 bradykinin receptor [4] (IC50) was put at 48.9 nM. For the same compound, the figures for the microsomal CLint in series [1] and in series [2] were 112 µL/min/mg and 100 µL/min/mg, respectively.

For the origin of these results see ChEMBL document CHEMBL1139432, “Aryl sulfones as novel bradykinin B1 receptor antagonists for treatment of chronic pain” (Bioorg Med Chem Lett, 2008).
